From patent publication US20090048278A1, “Novel Quinazoline-2,4-Diamine Derivatives and Their Use as Modulators of Small-Conductance Calcium-Activated Potassium Channels” (priority 2005, published 2009)
Where a name gives a salt, the structure may show the parent alone.

What was measured:
hSK3 channels = biological target: T1, hSK3 channels (Homo sapiens, UniProt Q9UGI6); assay: Whole-cell patch-clamp recording of SK3 current in HEK293 cells expressing hSK3 channels; type: cell-based; details: current at −75 mV, free Ca2+ 0.3-0.4 μM, room temperature, read-out: Ki value (concentration required for decreasing the baseline current to 50% of the initial current)
T1 construct: expressed in transfected cells; host or cells: HEK293
Method: The ionic current through small-conductance Ca^2+-activated K^+ channels (SK channels, subtype 3) was recorded using the whole-cell configuration of the patch-clamp technique.
HEK293 tissue culture cells expressing hSK3 channels were grown in DMEM (Dulbecco's Modified Eagle Medium) supplemented with 10% FCS (foetal calf serum) at 37° C. in 5% CO2. At 60-80% confluency, cells were harvested by trypsin treatment and seeded on cover slips.
Cells plated on coverslips are placed in a 15 μl perfusion chamber (flowrate ˜1 ml/min) mounted on an inverted microscope placed on a vibration-free table in a grounded Faraday cage. The experiments were performed at room temperature (20-22° C.). […] Data were stored directly on the hard-disk and analysed by IGOR software (Wavemetrics, Lake Oswega, Oreg., USA).
The whole-cell configuration of the patch-clamp technique was applied. […] Cell capacitance was electronically compensated and the resistance between the pipette and the cell interior (the series resistance, R^5) was measured and compensated for. […]
The intracellular (pipette) solution contained: 154 mM KCl, 10 mM HEPES, 10 mM EGTA. Concentrations of CaCl2 and MgCl2 needed to obtain the desired free concentrations of Ca^2+ (0.3-0.4 μM, Mg^2+ always 1 mM) were calculated by EqCal software (Cambridge, UK) and added. […]

| melting point [°C] | IC50 (hSK3 channels) [nM] | SMILES |
| --- | --- | --- |
| 263 to 264 | – | Clc1ccc(CNc2nc(NCc3ccc(Cl)cc3)c3ccccc3n2)cc1 (as salt: HCl) [Example 1, N^2,N^4-Bis(4-chlorobenzyl)quinazoline-2,4-diamine] |
| 275 to 276 | – | Fc1ccc(CNc2nc(NCc3ccc(F)c(F)c3)c3ccccc3n2)cc1F (as salt: HCl) [Example 2, N^2,N^4-Bis(3,4-difluorobenzyl)quinazoline-2,4-diamine] |
| 166 to 167 | – | Clc1ccc(CNc2nc(NC3CCCc4ccccc43)c3ccccc3n2)cc1 (centres unmarked) (as salt: HCl) [Example 11, N^2-(4-Chlorobenzyl)-N^4-(1,2,3,4-tetrahydronaphthalen-1-yl)quinazoline-2,4-diamine] |
| 148 to 149 | – | NCc1cccc(CNc2nc(NCc3ccc(F)c(F)c3)c3ccccc3n2)c1 [Example 3, N^2-(3-Aminomethylbenzyl)-N^4-(3,4-difluorobenzyl)quinazoline-2,4-diamine] |
| 59 to 60 | – | CN(C)c1ccc(CNc2nc(NCc3ccc(F)c(F)c3)nc3ccccc23)cc1 [Example 5, N^2-(3,4-Difluorobenzyl)-N^4-(4-dimethylaminobenzyl)quinazoline-2,4-diamine] |
| 86 to 87 | – | Clc1ccc(CNc2nc(N3CCCCC3c3ccccc3)nc3ccccc23)cc1 (centres unmarked) [Example 6, (4-Chlorobenzyl)-[2-(2-phenylpiperidin-1-yl)quinazolin-4-yl]amine] |
| 188 to 190.5 | – | OCCN(Cc1ccccc1)c1nc(NCc2ccc(Cl)cc2)c2ccccc2n1 [Example 7, N^2-Benzyl-N^4-(4-chlorobenzyl)-N^2-(hydroxyethyl)quinazoline-2,4-diamine] |
| – | 300 | N#CCCN(Cc1ccccc1)c1nc(NCc2ccc(Cl)cc2)c2ccccc2n1 [Example 8, N^2-Benzyl-N^4-(4-chlorobenzyl)-N^2-(cyanoethyl)quinazoline-2,4-diamine] |
